{"source": "patent US20220184159A1", "about": "“METHOD OF BOOSTING INNATE IMMUNITY” (UNIVERSITY OF THE SUNSHINE COAST, priority 2018, published 2022)", "origin": "cited, not measured here", "key": {"immune system of fish": {"system": "immune system of fish", "conditions": "carp, rainbow trout, turbot and Atlantic cod"}, "[1]": {"conditions": "administered in the feed, fish"}}}
{"smiles": "CN(C)[C@@H]1C(O)=C(C(N)=O)C(=O)[C@@]2(O)C(O)=C3C(=O)c4c(O)cccc4[C@@](C)(O)[C@H]3[C@H](O)[C@@H]12", "note": "[Oxytetracycline]", "values": [{"measurement": "effect on the immune system of fish", "setting": "immune system of fish", "result": "immunosuppressive effects"}, {"measurement": "ingested oxytetracycline excreted intact in the faeces", "setting": "[1]", "result": "70-80%"}]}
